What follows are compounds tested against T1, IRAK4 (Homo sapiens, UniProt Q9NWZ3) (assay: IRAK4 MSD Degradation in OCI-LY10). Conditions: OCI-LY10 cells, Meso Scale Discovery, incubated 4 to 24 hours.
T1 construct: endogenous in cells; host or cells: OCI-LY10
T1 sequence (Q9NWZ3 1-460): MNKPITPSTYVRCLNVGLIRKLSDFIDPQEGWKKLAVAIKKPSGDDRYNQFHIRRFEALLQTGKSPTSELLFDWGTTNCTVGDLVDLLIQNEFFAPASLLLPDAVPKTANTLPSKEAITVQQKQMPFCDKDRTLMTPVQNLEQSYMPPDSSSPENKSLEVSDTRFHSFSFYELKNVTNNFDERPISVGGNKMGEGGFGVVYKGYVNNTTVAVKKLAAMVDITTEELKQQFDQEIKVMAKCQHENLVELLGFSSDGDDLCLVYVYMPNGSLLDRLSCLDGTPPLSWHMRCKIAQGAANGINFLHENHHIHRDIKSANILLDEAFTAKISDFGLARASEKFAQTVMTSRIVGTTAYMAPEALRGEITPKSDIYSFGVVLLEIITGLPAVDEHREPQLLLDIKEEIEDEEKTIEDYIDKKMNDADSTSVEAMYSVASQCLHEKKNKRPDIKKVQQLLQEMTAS
Type: cell-based
How it was run: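 IRAK4 degradation was quantified by Meso Scale electrochemiluminescence (anti-IRAK4 capture and detection antibodies) in lysates of treated OCI-LY10 cells. Compounds were dosed at 8 concentrations (1:3 dilutions, top 1 to 10 μM) for 4 to 24 h; DC50 derived by three-parameter logistic fitting.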
`CC(C)Nc1cc(-n2ccc3cc(C#N)cnc32)ncc1C(=O)NC[C@H]1CC[C@H](CN(C)C2CCN(c3cccc4c3n(C)c(=O)n4C3CCC(=O)NC3=O)CC2)CC1` (some centres unmarked) [I-84] showed a DC50 of 50 to 100 nM.
Compound `CC(C)Nc1cc(-n2ccc3cc(C#N)cnc32)ncc1C(=O)N[C@H]1CC[C@H](CN2CCC(c3ccc4c(N5CCC(=O)NC5=O)cncc4c3)CC2)CC1` [I-127] has a DC50 of 10 to 50 nM.
For `COc1cc2nn([C@H]3CC[C@H](CN4CCN(c5cccc6c5n(C)c(=O)n6C5CCC(=O)NC5=O)C[C@@H]4C)CC3)cc2cc1NC(=O)c1cccc(C(F)(F)F)n1` (some centres unmarked) [I-246], the DC50 was 10 to 50 nM.
`Cn1c(=O)n(C2CCC(=O)NC2=O)c2c(F)ccc(C3CCN(C[C@H]4CC[C@H](n5cc6cc(NC(=O)c7cccc(C(F)(F)F)n7)c(F)cc6n5)CC4)CC3)c21` (some centres unmarked) [I-25] gave a DC50 of under 10 nM.
With `O=C1CCN(c2cncc3c(N4CCN(C[C@H]5CC[C@H](n6cc7cc(NC(=O)c8cccc(C(F)(F)F)n8)c(Cl)cc7n6)CC5)CC4)cccc23)C(=O)N1` [I-358] the DC50 was 10 to 50 nM.
`COc1cc2nn([C@H]3CC[C@H](CN4CCC(c5cccc6c5n(C)c(=O)n6C5CCC(=O)NC5=O)CC4(C)C)CC3)cc2cc1NC(=O)c1cccc(C(F)(F)F)n1` (some centres unmarked) [I-424] showed a DC50 of under 10 nM.
For `COc1cc2nn(CCN(C)C3CCN(c4cccc5c4n(C)c(=O)n5C4CCC(=O)NC4=O)CC3)cc2cc1NC(=O)c1cccc(C(F)(F)F)n1` (centres unmarked) [I-20, N-[2-[2-[[1-[1-(2,6-dioxo-3-piperidyl)-3-methyl-2-oxo-benzimidazol-4-yl]-4-piperidyl]-methyl-amino]ethyl]-6-methoxy-indazol-5-yl]-6-(trifluoromethyl)pyridine-2-carboxamide], the DC50 was over 200 nM.
`COc1cc2nn([C@H]3CC[C@H](CN4CCC(c5c(OC)ccc6c5n(C)c(=O)n6C5CCC(=O)NC5=O)CC4)CC3)cc2cc1NC(=O)c1cccc(C(F)(F)F)n1` (some centres unmarked) [I-48] was tested, and the DC50 was under 10 nM.
Work on `Cn1c(=O)n(C2CCC(=O)NC2=O)c2cccc(C3CCN(C[C@H]4CC[C@H](n5cc6cc(NC(=O)c7cccc(C(F)(F)F)n7)c(N7C[C@@H]8C[C@H]7CO8)cc6n5)CC4)CC3)c21` (some centres unmarked) [I-55] yielded a DC50 of 10 to 50 nM.
`COc1cc2nn([C@H]3CC[C@H](CN4C5CCC4CN(c4cccc6c4n(C)c(=O)n6C4CCC(=O)NC4=O)C5)CC3)cc2cc1NC(=O)c1cncc(C#N)c1` (some centres unmarked) [I-262] was tested, and the DC50 was under 10 nM.
Compound `COc1cc2nn([C@H]3C[C@H](CN4CCC(c5c(OC)ccc6c5n(C)c(=O)n6C5CCC(=O)NC5=O)CC4)C3)cc2cc1NC(=O)c1cccc(C(F)(F)F)n1` (some centres unmarked) [I-138] has a DC50 of under 10 nM.
With `Cn1c(=O)n(C2CCC(=O)NC2=O)c2cccc(C3CCN(C[C@H]4CC[C@H](n5cc6cc(NC(=O)n7ccc8cc(C#N)cnc87)ccc6n5)CC4)CC3)c21` (some centres unmarked) [I-129] the DC50 was under 10 nM.
`CC(C)(O)c1cc2nc([C@H]3CC[C@H](CN4CC5(CC(CCNc6cccc7c6C(=O)N(C6CCC(=O)NC6=O)C7=O)C5)C4)CC3)cn2cc1NC(=O)c1cccc(C(F)(F)F)n1` (some centres unmarked) [I-12] gave a DC50 of 10 to 50 nM.
Compound `Cn1c(=O)n(C2CCC(=O)NC2=O)c2cccc(C3CCN(C[C@H]4CC[C@H](n5cc6cc(NC(=O)c7cnn8cc(C#N)cnc78)ccc6n5)CC4)CC3)c21` (some centres unmarked) [I-95] has a DC50 of under 10 nM.
In the case of `C=C/C(NCCCN1CCN(C[C@H]2CC[C@H](c3nc4cc(C(C)(C)O)c(NC(=O)c5cccc(C)n5)cc4s3)CC2)C[C@@H]1C)=C1/C(=O)N(C2CCC(=O)NC2=O)C(=O)/C1=C/C` (some centres unmarked) [I-443], the DC50 is reported as 10 to 50 nM.
In the case of `Cc1ccc2c(c1C1CCN(C[C@H]3CC[C@H](n4cc5cc(NC(=O)c6cccc(C(F)(F)F)n6)ncc5n4)CC3)CC1)n(C)c(=O)n2C1CCC(=O)NC1=O` (some centres unmarked) [I-102], the DC50 is reported as under 10 nM.
Compound `COc1cc2nn([C@H]3CC[C@H](CN4CCC(c5c(C)ccc6c5n(C)c(=O)n6C5CCC(=O)NC5=O)CC4)CC3)cc2cc1NC(=O)c1cncc(Cl)c1` (some centres unmarked) [I-110] has a DC50 of under 10 nM.
`COc1cc2nn([C@H]3CC[C@H](CN4[C@@H]5C[C@H]4CN(c4cccc6c4n(C)c(=O)n6C4CCC(=O)NC4=O)C5)CC3)cc2cc1NC(=O)c1cccc(C(F)(F)F)n1` (some centres unmarked) [I-158] showed a DC50 of under 10 nM.
With `CN(CCNc1cccc2c1C(=O)N(C1CCC(=O)NC1=O)C2=O)C(=O)[C@H]1CC[C@H](c2nc3cc(C(C)(C)O)c(NC(=O)c4cccc(C(F)(F)F)n4)cc3s2)CC1` (some centres unmarked) [I-488] the DC50 was 100 to 200 nM.
For `COc1cc2nc([C@H]3CC[C@H](CN(C)CCCCNc4cccc5c4C(=O)N(C4CCC(=O)NC4=O)C5=O)CC3)sc2cc1NC(=O)c1cncc(Cl)c1` (some centres unmarked) [I-480], the DC50 was over 200 nM.
Work on `N#Cc1cc2nn([C@H]3CC[C@H](CN4CCN(c5cccc6c(N7CCC(=O)NC7=O)cncc56)CC4)CC3)cc2cc1NC(=O)c1cccc(C(F)(F)F)n1` [I-288] yielded a DC50 of 10 to 50 nM.
`CN(C[C@H]1CC[C@H](n2cc3cc(NC(=O)c4cccc(C(F)(F)F)n4)c(C(C)(C)O)cc3n2)CC1)C1CCN(c2cccc3c(N4CCC(=O)NC4=O)cncc23)CC1` [I-66] gave a DC50 of under 10 nM.
In the case of `Cn1c(=O)n(C2CCC(=O)NC2=O)c2cccc(N3CCN(C[C@H]4CC[C@H](n5cc6cc(NC(=O)c7cccc(C(F)(F)F)n7)c([S+](C)[O-])cc6n5)CC4)CC3)c21` (some centres unmarked) [I-308], the DC50 is reported as under 10 nM.
`Cc1cc2nn([C@H]3CC[C@H](CN4CC5CC(C4)N5c4cccc5c4n(C)c(=O)n5C4CCC(=O)NC4=O)CC3)cc2cc1NC(=O)c1cccc(C(F)(F)F)n1` (some centres unmarked) [I-414] gave a DC50 of 10 to 50 nM.
Work on `Cn1c(=O)n(C2CCC(=O)NC2=O)c2cccc(C3CCN(C[C@H]4C[C@H](n5cc6cc(NC(=O)c7cccc(C(F)(F)F)n7)ccc6n5)C4)CC3)c21` (some centres unmarked) [I-140] yielded a DC50 of 100 to 200 nM.
Work on `Cn1c(=O)n(C2CCC(=O)NC2=O)c2cccc(N3CC4CC(C3)N4C[C@H]3CC[C@H](n4cc5cc(NC(=O)c6cccc(C(F)(F)F)n6)ccc5n4)CC3)c21` (single isomer, unassigned) [I-157, N-[2-[4-[[3-[1-(2,6-dioxo-3-piperidyl)-3-methyl-2-oxo-benzimidazol-4-yl]-3,6-diazabicyclo[3.1.1]heptan-6-yl]methyl]cyclohexyl]indazol-5-yl]-6-(trifluoromethyl)pyridine-2-carboxamide] yielded a DC50 of 50 to 100 nM.
`O=C1CCC(N2C(=O)c3cccc(NCCC4CC5(C4)CN(C[C@H]4CC[C@H](c6nc7cc(C(=O)O)c(NC(=O)c8cccc(C(F)(F)F)n8)cc7s6)CC4)C5)c3C2=O)C(=O)N1` (some centres unmarked) [I-485] gave a DC50 of 10 to 50 nM.
Compound `CC(C)(O)c1cc2nc([C@H]3CC[C@H](CN4CC5(CC(CCNc6cccc7c6C(=O)N(C6CCC(=O)NC6=O)C7=O)C5)C4)CC3)[nH]c2cc1NC(=O)c1cccc(C(F)(F)F)n1` (some centres unmarked) [I-14] has a DC50 of 50 to 100 nM.
Work on `Cn1c(=O)n(C2CCC(=O)NC2=O)c2ccc(Cl)c(C3CCN(C[C@H]4C[C@H](n5cc6cc(NC(=O)c7cccc(C(F)(F)F)n7)c(Cl)cc6n5)C4)CC3)c21` (some centres unmarked) [I-144] yielded a DC50 of 50 to 100 nM.
`COc1cncc(C(=O)Nc2cc3sc([C@H]4CC[C@H](CN(C)CCCCNc5cccc6c5C(=O)N(C5CCC(=O)NC5=O)C6=O)CC4)nc3cc2OC)c1` (some centres unmarked) [I-449] showed a DC50 of over 200 nM.
`Cc1cccc(C(=O)Nc2cc3sc([C@H]4CC[C@H](C(=O)N5CC6(CCN(CCNc7cccc8c7C(=O)N(C7CCC(=O)NC7=O)C8=O)CC6)C5)CC4)nc3cc2C(C)(C)O)n1` (some centres unmarked) [I-468] was tested, and the DC50 was 10 to 50 nM.
In the case of `COc1cc2nn([C@H]3CC[C@H](CN(C)[C@H]4CC[C@H](c5cccc6c5n(C)c(=O)n6C5CCC(=O)NC5=O)CC4)CC3)cc2cc1NC(=O)c1cccc(C(F)(F)F)n1` (some centres unmarked) [I-5, N-[2-[4-[[[4-[1-(2,6-dioxo-3-piperidyl)-3-methyl-2-oxo-benzimidazol-4-yl]cyclohexyl]-methyl-amino]methyl]cyclohexyl]-6-methoxy-indazol-5-yl]-6-(trifluoromethyl)pyridine-2-carboxamide], the DC50 is reported as under 10 nM.
In the case of `Cn1c(=O)n(C2CCC(=O)NC2=O)c2cccc(N3CCN(C[C@H]4CC[C@H](n5cc6cc(NC(=O)c7cccc(C(F)(F)F)n7)ccc6n5)CC4)CC3)c21` (some centres unmarked) [I-209], the DC50 is reported as under 10 nM.
For `Cn1c(=O)n(C2CCC(=O)NC2=O)c2cccc(C#CCN3CCN(C[C@H]4CC[C@H](n5cc6cc(NC(=O)c7cccc(C(F)(F)F)n7)c(C(C)(C)O)cc6n5)CC4)CC3)c21` (some centres unmarked) [I-326], the DC50 was under 10 nM.
`COc1cc2nn([C@H]3CC[C@H](CN4CCN(c5cccc6c5n(C)c(=O)n6C5CCC(=O)NC5=O)CC4)CC3)cc2cc1NC(=O)c1cncc(C#N)c1` (some centres unmarked) [I-165] showed a DC50 of under 10 nM.
With `CC(C)(O)c1cc2nc([C@H]3CC[C@H](C(=O)N4CCN(CCCNc5cccc6c5C(=O)N(C5CCC(=O)NC5=O)C6=O)CC4)CC3)sc2cc1NC(=O)c1cccc(C#N)n1` (some centres unmarked) [I-435] the DC50 was 10 to 50 nM.
For `COc1cc2nn([C@H]3CC[C@H](CN4C5CC4CN(c4cccc6c4n(C)c(=O)n6C4CCC(=O)NC4=O)C5)CC3)cc2cc1NC(=O)c1cncc(C#N)c1` (some centres unmarked) [I-258], the DC50 was over 200 nM.
For `COc1ccc2c(c1C1CCN(C[C@H]3CC[C@H](n4cc5cc(NC(=O)c6cccc(C(F)(F)F)n6)ncc5n4)CC3)CC1)n(C)c(=O)n2[C@@H]1CCC(=O)NC1=O` (single isomer, unassigned) [I-274], the DC50 was 10 to 50 nM.
`COc1cc2nn([C@H]3CC[C@H](CN4CC[C@H](c5cccc6c5n(C)c(=O)n6C5CCC(=O)NC5=O)CC4(C)C)CC3)cc2cc1NC(=O)c1cccc(C(F)(F)F)n1` (single isomer, unassigned) [I-292] gave a DC50 of under 10 nM.
Compound `Cn1c(=O)n(C2CCC(=O)NC2=O)c2ccc(Cl)c(C3CCN(C[C@H]4CC[C@H](n5cc6cc(NC(=O)c7cccc(C(F)(F)F)n7)ccc6n5)CC4)CC3)c21` (some centres unmarked) [I-106] has a DC50 of 10 to 50 nM.
`COc1ccc2c(c1C1CCN(C[C@H]3CC[C@H](n4cc5cc(NC(=O)c6cncc(Cl)c6)ccc5n4)CC3)CC1)n(C)c(=O)n2C1CCC(=O)NC1=O` (some centres unmarked) [I-116] gave a DC50 of 100 to 200 nM.

From patent US12150995B2, “IRAK degraders and uses thereof” (Kymera Therapeutics, Inc., priority 2020, dated 2024)
